Experimental data published in patent publication US20130331389A1, “Methods and Compositions for Cardiomyocyte Replenishment by Endogenous and Progenitor Stem Cells” (NATIONAL CHENG KUNG UNIVERSITY, priority 2012, published 2013).

Legend:
MerCreMer/ZEG (M/Z) mice = test: Echocardiography after myocardial infarction (ejection fraction); type: in vivo, mouse; conditions: echocardiography at one and two months post-infarction
Experimental: M/Z mice were subjected to experimental myocardial infarction (MI) one month after the last tamoxifen injection. MI was generated by ligating the left anterior descending coronary artery at 2-3 mm distal to the left atrial appendage. For cell transplantation experiments, intramyocardial injections were performed immediately after coronary ligation. A total of 6×10^5 cardiac Sca-1^+ cells were injected per mouse in two divided injections (5 μl/injection). For BrdU labeling, the mice were subcutaneously implanted with osmotic minipump (Alzet) at the time of surgery and 40 μg/μl of BrdU (Sigma) was administrated. For immunohistological studies, mice were sacrificed and the hearts were harvested at different time points following experimental MI surgery. Cardiac performances were assessed by echocardiography at 28 and 56 days after operation using Vevo 770 (Visualsonics, Toronto, Canada).
To induce Cre recombination to achieve GFP labeling of cardiomyocytes, tamoxifen (Sigma) was dissolved in sunflower oil (Sigma) at a concentration of 5 mg/ml. The tamoxifen solution was injected intraperitoneally into M/Z mice daily at a dosage of 40 μg per 1 g body weight for 14 days, and the same dosage was injected twice daily for short-term labeling using methods known in the art (Laugwitz, K.-L. et al. Nature 433, 647-653 (2005)). […]

interleukin-10 (IL-10) = test: Quantitative RT-PCR of IL-10 at injured region; type: in vivo, mouse; conditions: both young and old mice; day 3 after infarction
Experimental: (§1) To induce Cre recombination to achieve GFP labeling of cardiomyocytes, tamoxifen (Sigma) was dissolved in sunflower oil (Sigma) at a concentration of 5 mg/ml. The tamoxifen solution was injected intraperitoneally into M/Z mice daily at a dosage of 40 μg per 1 g body weight for 14 days, and the same dosage was injected twice daily for short-term labeling using methods known in the art (Laugwitz, K.-L. et al. Nature 433, 647-653 (2005)). All experimental conditions were optimized prior to the PGE2, indomethacin and TGF-β Type I Receptor Kinase Inhibitor II (ALK5 Inhibitor II, ALK5i, Merck) treatments. The mice treated with PGE2 or PGI2 (Vegiopoulos, A. et al. Science 328, 1158-1161 (2010)) (both from Sigma) were injected intraperitoneally with 3.33 ng of drug per 1 g of body weight dissolved in absolute ethanol twice daily. […]
(§2) The total RNA isolated from the ischemic region or remote area of MI hearts was reverse transcribed using the SuperScript III (Invitrogen) system according to the manufacturer's protocol. For quantitative PCR, the SYBR Green reagent (Maestrogen) was used according to the manufacturer's protocol. The analysis of relative gene expression was performed using the 2̂[−delta delta Ct] method and sequence-specific primers designed for semi-quantitative PCR and real-time RT-PCR (FIG. 11).

[1] = tested on: cardiomyocyte-depleted small cells; test: Culture of cardiomyocyte-depleted small cells, cTnT immunocytochemistry; type: cell-based, mouse; conditions: PGE2 10 μm for three days
Experimental: Cardiomyocyte-depleted cardiac small cells were prepared as previously described with some modifications (Oh, H. et al. Proc. Natl. Acad. Sci. USA 100, 12313-12318 (2003); and Pfister, O. et al. Circ. Res. 97, 52-61 (2005)). Specifically, instead of using a 70 μm and then a 45 μm strainer to isolate the cardiomyocyte-depleted cardiac small cells, the cells were filtered through a 45 μm strainer directly after enzyme digestion. The minced heart tissue was digested with 0.1% collagenase B (Roche Molecular Biochemicals), 2.4 U/ml dispase II (Roche Molecular Biochemicals) and 2.5 mmol/L CaCl2 at 37° C. for 30 minutes and then filtered through a 45-μm filter. For isolation of cardiac Sca-1^+ cells, the cardiac small cells were incubated with the Phycoerythrin (PE)-conjugated Sca-1^+ antibodies (BD Bioscience) at 4° C. for 30 minutes. The PE-labeled Sca-1^+ cells were then sorted by the magnetic particles against PE (BD Biosciences). Incubation of cardiomyocyte-depleted small cells with anti-Sca-1-PE antibody and magnetic cell sorting were omitted for isolation of Sca-1^+ cells from the Sca-1-GFP transgenic mice. After isolation, the cells were fixed in 2% paraformaldehyde for 20 minutes and followed by 1 hour blocking in PBS with 1% BSA. […]

EP2 = test: Quantitative RT-PCR of PGE2 receptors at infarct region of MI heart; type: in vivo, mouse
Experimental: as §1, §2

[2] = tested on: MMP2, MMP9, TNF-α, IL-1β and IL-6; test: Quantitative RT-PCR of inflammatory cytokines in infarct region; type: in vivo, mouse; conditions: young mice
Experimental: as §1, §2

CCCCC[C@H](O)/C=C/C1C(O)CC(=O)C1C/C=C\CCCC(=O)O (stereo partly drawn) [PGE2, (5Z,11α,13E,15S)-7-[3-hydroxy-2-(3-hydroxyoct-1-enyl)-5-oxo-cyclopentyl]hept-5-enoic acid]
cardiac function post-MI (MerCreMer/ZEG (M/Z) mice): improved | expression of interleukin-10 (IL-10) (interleukin-10 (IL-10)): enhanced | mature sarcomeric structure, as determined by the expression of cTnT [1]: seen | expression of PGE2 receptor EP2 in hearts after MI (EP2): significantly induced | expression of inflammatory cytokines acting downstream of PGE2 [2]: further enhanced
